# US20030096237A1, “Determination of the ability of patients to respond to a tumor treatment” (priority 2000, published 2003)
# System: CNCM I-2545
# Test: oligonucleotide array analysis of IFN-α modulated gene expression
# Format: cell-based, human
# Set-up: key to nAD M94880 mhc class i (hla-a*8001): normalized average difference between perfect and mismatch probeset signals
# Experimental: All these cell lines were cultured in RPMI medium supplemented with 10% FCS, glutamine (2 mM), sodium pyruvate (1 mM), non-essential amino acids and HEPES buffer (10 mM) (all from GIBCO Life Sciences, Paisley, UK). When confluent, the cells were passaged by trypsinization.
# Cultured melanoma cells were harvested by scraping and total cellular RNA was extracted. 10 μg from each sample were used directly as templates for cDNA synthesis using a commercial kit (Roche Molecular Biochemicals, Rotkreuz, Switzerland). The T7 promoter sequence incorporated into the cDNA synthesis primer allowed template amplification and biotin labeling by in vitro transcription using a commercial kit (Affymetrix, Santa Clara, Calif.). After alkaline heat fragmentation […] was hybridised to the array (Affymetrix, Santa Clara, Calif.) and all subsequent steps were performed following standard procedures as supplied with the arrays. Raw data were collected with a confocal laser scanner (Hewlett Packard, Palo Alto, Calif.) using GeneChip software v3.1 (Affymetrix, Santa Clara, Calif.).
# Raw data were normalized based on the total chip signal obtained upon hybridisation of ME15 cell line cDNA. This array was selected because: i) the 5′/3′ intensity ratio of control genes was smaller than 3; ii)>25% of the genes are called “present” by Genechip; iii) the image appearance is homogeneous with low background and no sign of mechanical chip damage.
# The normalized average difference (nAD) between the signals of the perfect and of the mismatch probesets for each gene was used as the expression level of a given gene. At least one nAD value in a pairwise comparison of data has to exceed 50 to be included. Based on nAD, change factors related to IFN-α exposure were also calculated. Negative nAD values were set to 20 in order to avoid the calculation of artificially high modifications. In order to exclude artefacts, only genes with robust change factors, greater than 2-fold, were included in the analysis. […] Genes were clustered according to their mode of regulation.
# Total cellular RNA was extracted from the sensitive and resistant melanoma cell lines identified above, reverse transcribed and processed for hybridization to an oligonucleotide array (Hu6800FL, PN 900183) containing probe sets derived from 7000 full-length human genes. Expression levels for each gene were calculated as normalized average difference (nAD, see materials and methods).
# Patterns of genes expressed in IFN-α sensitive and resistant melanoma cell lines were investigated upon 48 hour culture in the presence of IFN-α. CNCM I-2546 and CNCM I-2545 were studied in detail.
# In Table 2 below, CNCM I-2546 and CNCM I-2545 cultured for 48 hours in the absence or in the presence of 100 U/ml IFN-α were used to assay cytokine modulated gene expression as matched with data obtained in fibrosarcoma cells. This analysis yielded six clusters of genes. […] Data are presented as average difference of signal intensity between match and mismatch probesets.
# In Table 3 below, CNCM I-2546 and CNCM I-2545 cell lines cultured for 48 hours in the absence or in the presence of 100 U/ml IFN-α were used to identify novel cytokine induced genes whose expression was not found to be modulated in fibrosarcoma cells. Cluster 1 includes genes inducible in the CNCM I-2546 sensitive but not in the CNCM I-2545 resistant cell line. Cluster 2 comprises genes inducible in both lines. Data are presented as average difference of signal intensity between match and mismatch probesets.
# [1] = CNCM I-2545 (+) IFN-α 100 U/ml 48 hours, (−) 11
# [2] = CNCM I-2545 (+) IFN-α 100 U/ml 48 hours, (−) 106
# [3] = CNCM I-2545 (+) IFN-α 100 U/ml 48 hours, (−) 115
# [4] = CNCM I-2545 (+) IFN-α 100 U/ml 48 hours, (−) 234
# [5] = CNCM I-2545 (+) IFN-α 100 U/ml 48 hours, (−) 238
substance,measurement,setting,value
IFN-α,nAD X15949 interferon regulatory factor-2 (irf-2),"CNCM I-2545 (+) IFN-α 100 U/ml 48 hours, (−) 0",13
same,nAD M92642 alpha-1 type xvi collagen (col16a1),[1],115
same,nAD U18018 ela enhancer binding protein (ela-f),[1],23
same,nAD M30818 interferon-induced cellular resistance mediator protein,"CNCM I-2545 (+) IFN-α 100 U/ml 48 hours, (−) 20",5
same,nAD L07633 interferon-gamma,"CNCM I-2545 (+) IFN-α 100 U/ml 48 hours, (−) 22",275
same,"nAD X70848 protein phosphatase 1, catalytic subunit","CNCM I-2545 (+) IFN-α 100 U/ml 48 hours, (−) 24",226
same,nAD D28137 bst-2,"CNCM I-2545 (+) IFN-α 100 U/ml 48 hours, (−) 37",88
same,nAD J03909 gamma-interferon-inducible protein (ip-30),"CNCM I-2545 (+) IFN-α 100 U/ml 48 hours, (−) 42",142
same,nAD L42243 ifnar2 gene (interferon receptor),"CNCM I-2545 (+) IFN-α 100 U/ml 48 hours, (−) 62",−6
same,nAD J04182 lysosomal membrane glycoprotein-1 (lamp1),"CNCM I-2545 (+) IFN-α 100 U/ml 48 hours, (−) 66",484
same,"nAD D78132 rheb gene, ras-related gtp binding protein gene","CNCM I-2545 (+) IFN-α 100 U/ml 48 hours, (−) 88",253
same,nAD Z56281 interferon regulatory factor 3,"CNCM I-2545 (+) IFN-α 100 U/ml 48 hours, (−) 93",31
same,nAD U53830 interferon regulatory factor 7a,"CNCM I-2545 (+) IFN-α 100 U/ml 48 hours, (−) 103",5
same,nAD L40387 thyroid receptor interactor (trip14),"CNCM I-2545 (+) IFN-α 100 U/ml 48 hours, (−) 104",5
same,nAD J00212 leukocyte interferon (ifn-alpha),[2],9
same,nAD U50648 interferon-inducible rna-dependent protein kinase (pkr),[2],46
same,nAD U69126 fuse binding protein 2 (fbp2),"CNCM I-2545 (+) IFN-α 100 U/ml 48 hours, (−) 114",159
same,nAD M60784 ul snrnp-specific protein,[3],413
same,nAD U70063 human acid ceramidase,[3],400
same,nAD U72882 interferon-induced leucine zipper protein (ifp35),"CNCM I-2545 (+) IFN-α 100 U/ml 48 hours, (−) 125",27
same,nAD X76538 mpv17,"CNCM I-2545 (+) IFN-α 100 U/ml 48 hours, (−) 132",101
same,"nAD M19650 2′,3′-cyclic nucleotide 3prime-phosphodiesterase","CNCM I-2545 (+) IFN-α 100 U/ml 48 hours, (−) 137",99
same,nAD X57522 ring4 cdna,"CNCM I-2545 (+) IFN-α 100 U/ml 48 hours, (−) 143",49
same,nAD M65028 heterogeneous nuclear ribonucleoprotein a/b,"CNCM I-2545 (+) IFN-α 100 U/ml 48 hours, (−) 154",353
same,nAD K01900 lymphocyte interferon alpha type 201,"CNCM I-2545 (+) IFN-α 100 U/ml 48 hours, (−) 156",7
same,nAD U78525 human eukaryotic translation initiation factor (eif3),"CNCM I-2545 (+) IFN-α 100 U/ml 48 hours, (−) 165",372
same,nAD M79462 pml-1,"CNCM I-2545 (+) IFN-α 100 U/ml 48 hours, (−) 201",11
same,nAD L37043 casein kinase i epsilon,"CNCM I-2545 (+) IFN-α 100 U/ml 48 hours, (−) 218",221
same,nAD X04412 plasma gelsolin,"CNCM I-2545 (+) IFN-α 100 U/ml 48 hours, (−) 220",220
same,nAD X96401 rox protein,"CNCM I-2545 (+) IFN-α 100 U/ml 48 hours, (−) 229",83
same,nAD D50914 EST,[4],78
same,nAD X07730 prostate specific antigen,[4],85
same,nAD U72206 guanine nucleotide regulatory factor (lfp40),[5],162
same,nAD Z26491 gene catechol o-methyltransferase,[5],181
same,nAD U91316 acyl-coa thioester hydrolase,"CNCM I-2545 (+) IFN-α 100 U/ml 48 hours, (−) 253",428
same,nAD U51127 interferon regulatory factor 5,"CNCM I-2545 (+) IFN-α 100 U/ml 48 hours, (−) 262",91
same,nAD U52513 rig-g,"CNCM I-2545 (+) IFN-α 100 U/ml 48 hours, (−) 289",10
same,nAD M97935 transcription factor isgf-3,"CNCM I-2545 (+) IFN-α 100 U/ml 48 hours, (−) 331",92
same,nAD U01824 glutamate/aspartate transporter,"CNCM I-2545 (+) IFN-α 100 U/ml 48 hours, (−) 339",35
same,"nAD HG2917 major histocompatibility complex, class i, e","CNCM I-2545 (+) IFN-α 100 U/ml 48 hours, (−) 353",322
same,nAD X90846 mixed lineage kinase 2,"CNCM I-2545 (+) IFN-α 100 U/ml 48 hours, (−) 357",60
same,nAD M31013 nonmuscle myosin heavy chain (nmhc),"CNCM I-2545 (+) IFN-α 100 U/ml 48 hours, (−) 377",263
same,nAD D21235 hhr23a protein,"CNCM I-2545 (+) IFN-α 100 U/ml 48 hours, (−) 388",346
same,nAD Y00264 amyloid a4 precursor,"CNCM I-2545 (+) IFN-α 100 U/ml 48 hours, (−) 392",427
same,nAD Z47055 farnesyl pyrophosphate synthetase like,"CNCM I-2545 (+) IFN-α 100 U/ml 48 hours, (−) 394",797
same,nAD U50327 protein kinase c substrate 80k-h gene (prkcsh),"CNCM I-2545 (+) IFN-α 100 U/ml 48 hours, (−) 401",236
same,nAD U61263 acetolactate synthase homolog,"CNCM I-2545 (+) IFN-α 100 U/ml 48 hours, (−) 410",301
same,nAD M34338 spermidine synthase,"CNCM I-2545 (+) IFN-α 100 U/ml 48 hours, (−) 472",277
same,nAD D49824 hla-b null allele,"CNCM I-2545 (+) IFN-α 100 U/ml 48 hours, (−) 527",267
same,nAD M94880 mhc class i (hla-a*8001),"CNCM I-2545 (+) IFN-α 100 U/ml 48 hours, (−) 551",421
same,nAD HG1612 macmarcks,"CNCM I-2545 (+) IFN-α 100 U/ml 48 hours, (−) 588",505
same,nAD U65579 mitochondrial nadh dehydrogenase-ubiquinone,"CNCM I-2545 (+) IFN-α 100 U/ml 48 hours, (−) 630",621
same,nAD X95325 dna binding protein a variant,"CNCM I-2545 (+) IFN-α 100 U/ml 48 hours, (−) 634",253
same,nAD U47025 fetal brain glycogen phosphorylase b,"CNCM I-2545 (+) IFN-α 100 U/ml 48 hours, (−) 672",465
same,nAD U18009 chromosome 17q21 clone lf113,"CNCM I-2545 (+) IFN-α 100 U/ml 48 hours, (−) 674",423
same,nAD J04444 cytochrome c-1 gene,"CNCM I-2545 (+) IFN-α 100 U/ml 48 hours, (−) 886",2268
same,"nAD HG658 major histocompatibility complex, class 1 c","CNCM I-2545 (+) IFN-α 100 U/ml 48 hours, (−) 1183",455
same,nAD D32050 alanyl-trna synthetase,"CNCM I-2545 (+) IFN-α 100 U/ml 48 hours, (−) 1458",761
same,nAD J00105 beta-2 microglobulin gene,"CNCM I-2545 (+) IFN-α 100 U/ml 48 hours, (−) 1668",2101
same,nAD X57351 1-8d gene from interferon-inducible gene family,"CNCM I-2545 (+) IFN-α 100 U/ml 48 hours, (−) 2469",2686
same,nAD U65932 extracellular matrix protein 1 (ecm1),"CNCM I-2545 (+) IFN-α 100 U/ml 48 hours, (−) 2498",1066
same,nAD L13210 mac-2 binding protein,"CNCM I-2545 (+) IFN-α 100 U/ml 48 hours, (−) 2555",2092
same,nAD K03515 neuroleukin,"CNCM I-2545 (+) IFN-α 100 U/ml 48 hours, (−) 2998",2552
same,nAD M98343 amplaxin (ems1),"CNCM I-2545 (+) IFN-α 100 U/ml 48 hours, (−) −24",63
same,"nAD L35249 vacuolar h + -atpase mr 56,000 subunit (ho57)","CNCM I-2545 (+) IFN-α 100 U/ml 48 hours, (−) −40",357
same,nAD U09579 melanoma differentiation associated (mda-6),"CNCM I-2545 (+) IFN-α 100 U/ml 48 hours, (−) −59",−26
same,nAD U41515 dss1,"CNCM I-2545 (+) IFN-α 100 U/ml 48 hours, (−) −62",123
same,nAD S81914 iex-1 = radiation-inducible immediate-early gene,"CNCM I-2545 (+) IFN-α 100 U/ml 48 hours, (−) −66",21
same,nAD M13755 interferon-induced 17-kda/15-kda protein,"CNCM I-2545 (+) IFN-α 100 U/ml 48 hours, (−) −163",31
same,"nAD U22970 16-jun gene, interferon-inducible peptide (6-16)","CNCM I-2545 (+) IFN-α 100 U/ml 48 hours, (−) −190",24
same,nAD J04164 interferon-inducible protein 27-sep,"CNCM I-2545 (+) IFN-α 100 U/ml 48 hours, (−) −447",−97
same,nAD X67325 p27,"CNCM I-2545 (+) IFN-α 100 U/ml 48 hours, (−) −460",−86
same,change factor (CF) D21235 hhr23a protein,"CNCM I-2545, IFN-α 100 U/ml 48 hours",−0.12
